From patent US20250213652A1, “COMPOSITIONS AND THEIR USE IN METHODS FOR TREATING INTESTINAL INFLAMMATION” (REVOLO BIOTHERAPEUTICS LIMITED, priority 2022, published 2025)

Experiments:
PBMCs = experiment: p-STAT5 status and FoxP3 in T cell subsets of treated PBMCs (Table 4); format: cell-based
Excerpt: In Tregs, CD69 is thought to promote CD39 surface expression, FoxP3 transcription, and STAT5 phosphorylation leading to STAT3 inhibition. The present study assessed the effects of IRL1805 on p-STAT5. […] Treatment of PBMCs with IRL201805 led to changes in p-STAT5 status of CD4/CD8 T cells and increased 3-fold the level of FoxP3 transcription (see Table 4).

RAG2−/− mice = experiment: CD4+CD45RBhigh T cell adoptive transfer murine model of intestinal inflammation; format: in vivo
Excerpt: In the present study, intestinal inflammation is initiated with syngeneic splenic CD4^+CD45RB^high T cell adoptive transfer into T and B cell deficient recipient mice.^37 The CD4^+CD45RB^high T cell population contains mainly naïve T cells primed for activation that are capable of inducing chronic small bowel and colonic inflammation. This animal model allows the modification of key experimental variables, including both innate and adaptive immune cell populations, to answer biologically relevant questions relating to disease pathogenesis. […]
From Day 21 until the end of the experiment on Day 49, animals are monitored daily for clinical signs of colitis to include: bodyweight loss, loose stools and/or diarrhea. On Day 49, animals are culled, the colon dissected out, and colon weight and length measured. […]
From Day 21 until the end of the experiment, animals are monitored daily for clinical signs of colitis to include bodyweight loss, loose stools and/or diarrhea.
(§1) At termination, colon from half the animals in each group are transferred in tissue fixative, then processed for paraffin-embedding in a ‘swiss roll’ format. These samples are sectioned and stained with hematoxylin and eosin (H&E) and up to two sections per animal are scored by a qualified histopathologist according to a semi-quantitative scoring system. […]

galectin-1 (Gal-1) = experiment: TMT quantitative proteomics of monocyte cell surface, Gal-1; format: cell-based; conditions: human monocytes (n=4), 1 hour
Excerpt: (§2) FIG. 10B provides a bar graph showing the effects of IRL201805 on CD69 ligands, galectin-1 (Gal-1) and S100A8/A9, as detected by TMT quantitative proteomics.
(§3) The potential ligands, Gal-1 and S100A8/A9, are known to bind to CD69.43 In order to examine the expression of and influence the ability of T cells to sustain a Treg phenotype, the present study investigated the effects of 1805 on the expression of Gal-1 and S100A8/A9 in APCs (monocytes). Human monocytes isolated from healthy individuals (n=4) were exposed to 1805 for 1 hour at levels of both Gal-1 and S100A8/A9 proteins.
(§4) The abundance of Gal-1 and S100A8/A9 protein at the cell surface were detected by tandem mass tag (TMT) quantitative proteomics.

JAK3 = experiment: RNAseq gene transcript levels, JAK3; format: cell-based, human; conditions: 20 μg/mL, 24 hour post treatment
Description: (§5) FIG. 9A-B illustrates the effects of 20 µg/mL IRL201805 on JAK-STAT signaling pathway at the transcript and protein level. FIG. 9A provides the RNAseq analysis of gene transcript levels of key signaling genes involved in CD69 activation. FIG. 9B provides the immunoblot of p-STAT5 levels in cell lysates from untreated and IRL1805 treated PBMCs.
(§6) In the present study, the effects of IRL201805 on JAK-STAT signaling pathway were assessed at the transcript and protein level. PBMCs were isolated from a healthy subject and treated for 24 h with 20 μg/mL IRL201805.
(§7) RNAseq analysis was used to assess gene transcript levels of key signaling genes involved in CD69 activation.

C57-bl/6 mice = experiment: Dextran sulphate sodium (DSS)-induced murine model of ulcerative colitis; format: in vivo; conditions: 5% DSS
Description: In the present study, the DDS murine model of UC will be used to evaluate the efficacy of BiP analogs such as IRL201805 (SEQ ID NO:1).
Adult C57-bl/6 mice are randomly allocated to experimental groups and allowed to acclimatize for one week. From Day-2, treatments are administered in accordance with the administration schedule below. On Day 0, drinking water is replaced by a 5% dextran sulphate sodium (DSS) in water (excluding group 1 which remains on normal drinking water throughout). Animals are given ad libitum access to the 5% DSS solution. From Day 0 until the end of the experiment on Day 7, animals are monitored daily for clinical signs of colitis to include: bodyweight loss, loose stools and/or diarrhea and presence of occult or gross blood in the stools. […]
From Day 0 until the end of the experiment, animals are monitored daily for clinical signs of colitis to include bodyweight loss, loose stools and/or diarrhea and presence of blood, occult or gross, in the stools.
as §1

S100A9 = experiment: Mass spec analysis of S100A9 post-translational modification in monocytes; format: cell-based; conditions: human monocytes
Excerpt: as §2, §3

STAT5B = experiment: RNAseq gene transcript levels, STAT5B; format: cell-based, human; conditions: monocytes from three healthy individuals
Description: as §5
In the present study, the effects of IRL201805 on JAK-STAT signaling pathway were assessed at the transcript and protein level. […]
as §7

STAT5A = experiment: RNAseq gene transcript levels, STAT5A; format: cell-based, human; conditions: monocytes from three healthy individuals
Description: as §5, §6, §7

[1] = tested on: CD69+/CD39+ regulatory T cells (Tregs); experiment: Colon punch biopsies from IBD patients, flow cytometry of CD69+/CD39+ Tregs; format: cell-based, human; conditions: 20 μg/mL, 12-14 hours, inflamed colonic tissue compared to non-inflamed tissue from the same patient
Description: FIG. 6A-E provides an outline of the procedure used to assess the effects of human primary immune cells ex vivo within inflamed and non-inflamed colon tissue treated with IRL201805.
(§8) In the present study, punch biopsies (2 mm^2) of inflamed and non-inflamed colon tissues were obtained from each consenting IBD patient with hospital ethical approval, as illustrated in FIG. 6A-E. Tissue biopsies were subsequently incubated for 12-14 hours with or without IRL201805 (20 μg/mL) and assessed for CD69+/CD39+ regulatory T cells (Tregs).

CD69 [2] = experiment: Surface expression of CD69 and CD39 on Tregs from PBMCs, flow cytometry; format: cell-based, human; conditions: 20 μg/mL, 20-72 h at 37° C., PBMCs from two healthy donors
Description: FIG. 8 depicts the mean fluorescent intensity of surface expression of CD69 and CD39 on Tregs from peripheral blood mononuclear cells (PBMCs) cultured with 20 μg/mL IRL201805 for 20-72 h at 37° C.
In the present study, PBMCs were isolated from two healthy donors. PBMCs were then incubated with IRL201805 (20 μg/mL) for 20-72 h at 37° C. Flow cytometry was used to measure mean fluorescent intensity and assess surface expression of CD69 and CD39 on Tregs from the PBMCs.

p-STAT5 [3] = experiment: Colon punch biopsies from IBD patients, p-STAT5 by flow cytometry; format: cell-based, human; conditions: data not shown
Description: as §8

SOCS3 = experiment: RNAseq gene transcript levels, SOCS3; format: cell-based, human; conditions: 20 μg/mL, 24 hour post treatment
Description: as §5, §6, §7

S100A8/A9 = experiment: TMT quantitative proteomics of monocyte cell surface, S100A8/A9; format: cell-based; conditions: human monocytes (n=4), 1 hour
Excerpt: as §2, §3, §4

p-STAT5 [4] = experiment: Immunoblot of p-STAT5 in PBMC cell lysates; format: cell-based, human; conditions: 20 μg/mL, 24 hours, compared to untreated PBMCs
Description: as §5, §6
Immunoblotting of PBMC cell lysates with recombinant anti-STAT5 (phospho Y694) antibody [E208] (ab32364) (Abcam, ab32364) was used to assess the p-STAT5 levels in from untreated and IRL1805 treated PBMCs.

CD69 [5] = experiment: Surface CD154 and CD69 activation markers on T-lymphocytes from PBMCs; format: cell-based, human; conditions: 20 μg/mL, 20 hours at 37° C., PBMCs from four healthy donors, p=0.008
Excerpt: FIG. 11A-C provides bar graphs showing the effects of IRL201805 on the expression of surface CD154 and CD69 activation markers on T-lymphocytes from PBMCs: Tregs (FIG. 11A); effector T cells (Teffs; FIG. 11B); and CD8 T cells (FIG. 11C). Results are from PBMCs isolated from four healthy donors. Mean±SD shown. P=values represent paired sample t-test. NS=not significant.
The present study assessed the effects of 1805 on the expression of surface CD154 and CD69 activation markers on T-lymphocytes from PBMC of Tregs, Teffs, and CD8 T cells. PBMCs isolated from four healthy donors were cultured with or without 20 μg/mL IRL201805 for 20 hours at 37° C.

STAT3 phosphorylation = STAT3 phosphorylation in human lymphocytes (previous unpublished data); format: cell-based

Substance: IRL201805: a modified analog of GRP78 (BiP analog, SEQ ID NO:1) being developed for the treatment of autoimmune disease
- p-STAT5 in subsets of immune cells (PBMCs; PBMCs): increased p-STAT5
- increase of the level of FoxP3 transcription (PBMCs; PBMCs, versus untreated): 3 fold
- % CD4+ve (PBMCs; treated PBMCs): 7.1%
- % CD8+ve (PBMCs; treated PBMCs): 3.2%
- % FoxP3 + Tregs (PBMCs; treated PBMCs): 0.9%
- CD25hi/CD127lo Tregs (PBMCs; treated PBMCs): 3.2
- clinical signs of colitis (bodyweight loss, loose stools and/or diarrhea) (RAG2−/− mice; IV from Day 21, dose TBC): significant reduction in clinical signs of colitis
- histopathology severity scores (RAG2−/− mice; T cell transfer colitis, colon sections H&E, Day 49): significant reduction in severity scores
- Gal-1 expression on the cell surface (galectin-1 (Gal-1)): not altered
- increase of JAK3 gene transcript level (JAK3): approximately 10 fold
- clinical signs of colitis (bodyweight loss, loose stools and/or diarrhea) (C57-bl/6 mice; 1 mg/kg IV Day −2, 0, 3, 6): significant reduction in clinical signs of colitis
- histopathology severity scores (C57-bl/6 mice; 1 mg/kg IV, colon sections H&E, Day 7): significant reduction in severity scores
- increase of phosphorylation of S100A9 (S100A9; 1 hour): 58%
- trimethylation post-translational modifications on threonine 113 on S100A9 (S100A9; mass spec): increased trimethylation
- transcript levels of STAT5B (STAT5B): did not affect
- transcript levels of STAT5A (STAT5A): did not affect
- increase in double positive CD69+/CD39+ Tregs [1]: 20%
- duration of sustained CD69 expression on CD154- cells (CD69 [2]): at least 72 h
- p-STAT5 in subsets of immune cells by flow cytometry (p-STAT5 [3]): increased p-STAT5
- increase of SOCS3 gene transcript level (SOCS3): approximately 10 fold
- S100A8/A9 expression on the cell surface (S100A8/A9): not altered
- p-STAT5 levels by immunoblot (p-STAT5 [4]): increased levels
- increase of CD69 on the cell surface of Tregs (CD69 [5]): 2 fold

Substance: binding immunoglobulin protein [BiP]
- STAT3 phosphorylation (STAT3 phosphorylation): inhibit STAT3 phosphorylation
